Test results published in patent US6737383B1, “Herbicidal oxadiazolidines” (priority 1999, dated 2004).

Assays:
[1] = tested on: blackgrass; test: Test B pre/postemergence blackgrass; assay type: in vivo, Alopecurus myosuroides
How it was run: (§1)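 Response is a visual 0-to-10 score relative to untreated plants, where 0 means no effect and 10 means complete control, taken twelve to sixteen days after application. Treatments went onto soil at planting and onto foliage of 1- to 4-leaf plants, using a surfactant-containing non-phytotoxic solvent.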

[2] = tested on: cocklebur; test: Test B pre/postemergence cocklebur; assay type: in vivo, Xanthium strumarium; conditions: for Cocklebur plant response rating: scale of 0 to 10 where 0 is no effect and 10 is complete control
How it was run: as §1

[3] = tested on: corn; test: Test B pre/postemergence corn; assay type: in vivo, Zea mays; conditions: for Corn plant response rating: scale of 0 to 10 where 0 is no effect and 10 is complete control
How it was run: as §1

[4] = tested on: crabgrass; test: Test B pre/postemergence crabgrass; assay type: in vivo, Digitaria sanguinalis; conditions: for Crabgrass plant response rating: scale of 0 to 10 where 0 is no effect and 10 is complete control
How it was run: as §1

[5] = tested on: giant foxtail; test: Test B pre/postemergence giant foxtail; assay type: in vivo, Setaria faberii; conditions: for Giant foxtail plant response rating: scale of 0 to 10 where 0 is no effect and 10 is complete control
How it was run: as §1

[6] = tested on: morningglory; test: Test B pre/postemergence morningglory; assay type: in vivo, Ipomoea hederacea; conditions: for Morningglory plant response rating: scale of 0 to 10 where 0 is no effect and 10 is complete control
How it was run: as §1

[7] = tested on: pigweed; test: Test B pre/postemergence pigweed; assay type: in vivo, Amaranthus retroflexus; conditions: for Redroot pigweed plant response rating: scale of 0 to 10 where 0 is no effect and 10 is complete control
How it was run: as §1

[8] = tested on: rape; test: Test B pre/postemergence rape; assay type: in vivo, Brassica napus; conditions: for Rape plant response rating: scale of 0 to 10 where 0 is no effect and 10 is complete control
How it was run: as §1

[9] = tested on: soybean; test: Test B pre/postemergence soybean; assay type: in vivo, Glycine max; conditions: for Soybean plant response rating: scale of 0 to 10 where 0 is no effect and 10 is complete control
How it was run: as §1

[10] = tested on: sugar beet; test: Test B pre/postemergence sugar beet; assay type: in vivo, Beta vulgaris; conditions: for Sugarbeets plant response rating: scale of 0 to 10 where 0 is no effect and 10 is complete control
How it was run: as §1

[11] = tested on: velvetleaf; test: Test B pre/postemergence velvetleaf; assay type: in vivo, Abutilon theophrasti; conditions: for Velvetleaf plant response rating: scale of 0 to 10 where 0 is no effect and 10 is complete control
How it was run: as §1

[12] = tested on: wheat; test: Test B pre/postemergence wheat; assay type: in vivo, Triticum aestivum; conditions: for Wheat plant response rating: scale of 0 to 10 where 0 is no effect and 10 is complete control
How it was run: as §1

[13] = tested on: purple nutsedge; test: Test B pre/postemergence purple nutsedge; assay type: in vivo, Cyperus rotundus; conditions: for Nutsedge plant response rating: scale of 0 to 10 where 0 is no effect and 10 is complete control
How it was run: as §1

[14] = tested on: rice; test: Test B flood test rice; assay type: in vivo, Oryza sativa
How it was run: (§2)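 Plants were grown to the 2-leaf stage before treatment with test chemical, then held in a greenhouse for twelve to sixteen days. Injury was visually rated against untreated controls on a 0–10 scale, where 0 is no effect and 10 is complete control.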

[15] = tested on: smallflower flatsedge; test: Test B flood test smallflower flatsedge; assay type: in vivo, Cyperus difformis
How it was run: as §2

[16] = tested on: duck salad; test: Test B flood test duck salad; assay type: in vivo, Heteranthera limosa
How it was run: as §2

[17] = Postemergence, Rate 125 g/ha, scale 0 to 10, 0 is no effect, 10 is complete control
[18] = Preemergence, Rate 62 g/ha, scale 0 to 10 (0 no effect, 10 complete control)
[19] = Rate 500 g/ha, Postemergence, scale 0 to 10, 0 no effect, 10 complete control
[20] = Postemergence (flood test), Rate 125 g/ha, scale 0 to 10, 0 is no effect, 10 is complete control
[21] = Rate 62 g/ha, Postemergence (flood test species), scale of 0 to 10 where 0 is no effect and 10 is complete control
[22] = Rate 500 g/ha, listed under Postemergence (flood test species), scale 0 to 10, 0 no effect, 10 complete control

## CC(C)N(C(=O)n1oc(=O)n(C2CCCCCC2)c1=O)c1ccc(F)cc1F [Compound 342]
[1]; [17]
  Plant response rating, Blackgrass: 0
[1]; [18]
  Plant response rating, Blackgrass: 0
[1]; Preemergence, Rate 125 g/ha
  Blackgrass plant response rating (0 to 10 scale): 3
[1]; Preemergence, Rate 250 g/ha, scale of 0 to 10 where 0 is no effect and 10 is complete control
  Blackgrass plant response rating: 3
[1]; Preemergence, Rate 500 g/ha, scale of 0 to 10 where 0 is no effect and 10 is complete control
  Blackgrass plant response rating: 7
[1]; Rate 62 g/ha, Postemergence, scale of 0 to 10 where 0 is no effect and 10 is complete control
  Blackgrass plant response rating: 0
[1]; Rate 250 g/ha, Postemergence, scale of 0 to 10 where 0 is no effect and 10 is complete control
  Plant response rating, Blackgrass: 2
[1]; [19]
  Plant response rating, Blackgrass: 4
[2]; [17]
  Plant response rating, Cocklebur: 0
[2]; [18]
  Plant response rating, Cocklebur: 0
[2]; Preemergence, Rate 125 g/ha
  Cocklebur plant response rating (0 to 10 scale): 0
[2]; Preemergence, Rate 500 g/ha
  Cocklebur plant response rating: 0
[2]; Rate 62 g/ha, Postemergence
  Cocklebur plant response rating: 0
[2]; [19]
  Plant response rating, Cocklebur: 0
[3]; [17]
  Plant response rating, Corn: 0
[3]; [18]
  Plant response rating, Corn: 0
[3]; Preemergence, Rate 125 g/ha
  Corn plant response rating (0 to 10 scale): 0
[3]; Preemergence, Rate 250 g/ha
  Corn plant response rating: 0
[3]; Preemergence, Rate 500 g/ha
  Corn plant response rating: 0
[3]; Rate 62 g/ha, Postemergence
  Corn plant response rating: 0
[3]; [19]
  Plant response rating, Corn: 0
[4]; [17]
  Plant response rating, Crabgrass: 0
[4]; [18]
  Plant response rating, Crabgrass: 4
[4]; Preemergence, Rate 125 g/ha
  Crabgrass plant response rating (0 to 10 scale): 6
[4]; Preemergence, Rate 250 g/ha
  Crabgrass plant response rating: 9
[4]; Preemergence, Rate 500 g/ha
  Crabgrass plant response rating: 9
[4]; Rate 62 g/ha, Postemergence
  Crabgrass plant response rating: 0
[4]; [19]
  Plant response rating, Crabgrass: 3
[5]; [17]
  Plant response rating, Giant foxtail: 0
[5]; [18]
  Plant response rating, Giant foxtail: 8
[5]; Preemergence, Rate 125 g/ha
  Giant foxtail plant response rating (0 to 10 scale): 9
[5]; Preemergence, Rate 250 g/ha
  Giant foxtail plant response rating: 10
[5]; Preemergence, Rate 500 g/ha
  Giant foxtail plant response rating: 10
[5]; Rate 62 g/ha, Postemergence
  Giant foxtail plant response rating: 0
[5]; [19]
  Plant response rating, Giant foxtail: 7
[6]; [17]
  Plant response rating, Morningglory: 7
[6]; [18]
  Plant response rating, Morningglory: 0
[6]; Preemergence, Rate 125 g/ha
  Morningglory plant response rating (0 to 10 scale): 0
[6]; Preemergence, Rate 250 g/ha
  Morningglory plant response rating: 0
[6]; Preemergence, Rate 500 g/ha
  Morningglory plant response rating: 0
[6]; Rate 62 g/ha, Postemergence
  Morningglory plant response rating: 7
[6]; [19]
  Plant response rating, Morningglory: 9
[7]; [17]
  Plant response rating, Redroot pigweed: 2
[7]; [18]
  Plant response rating, Redroot pigweed: 0
[7]; Preemergence, Rate 125 g/ha
  Redroot pigweed plant response rating (0 to 10 scale): 0
[7]; Preemergence, Rate 250 g/ha
  Redroot pigweed plant response rating: 0
[7]; Preemergence, Rate 500 g/ha
  Redroot pigweed plant response rating: 0
[7]; Rate 62 g/ha, Postemergence
  Redroot pigweed plant response rating: 2
[7]; [19]
  Plant response rating, Redroot pigweed: 8
[8]; [17]
  Plant response rating, Rape: 0
[8]; [18]
  Plant response rating, Rape: 0
[8]; Preemergence, Rate 125 g/ha
  Rape plant response rating (0 to 10 scale): 0
[8]; Preemergence, Rate 250 g/ha
  Rape plant response rating: 0
[8]; Preemergence, Rate 500 g/ha
  Rape plant response rating: 0
[8]; Rate 62 g/ha, Postemergence
  Rape plant response rating: 0
[8]; [19]
  Plant response rating, Rape: 4
[9]; [17]
  Plant response rating, Soybean: 5
[9]; [18]
  Plant response rating, Soybean: 0
[9]; Preemergence, Rate 125 g/ha
  Soybean plant response rating (0 to 10 scale): 0
[9]; Preemergence, Rate 250 g/ha
  Soybean plant response rating: 0
[9]; Preemergence, Rate 500 g/ha
  Soybean plant response rating: 0
[9]; Rate 62 g/ha, Postemergence
  Soybean plant response rating: 3
[9]; [19]
  Plant response rating, Soybean: 7
[10]; [17]
  Plant response rating, Sugarbeets: 0
[10]; [18]
  Plant response rating, Sugarbeets: 0
[10]; Preemergence, Rate 125 g/ha
  Sugarbeets plant response rating (0 to 10 scale): 0
[10]; Preemergence, Rate 250 g/ha
  Sugarbeets plant response rating: 0
[10]; Preemergence, Rate 500 g/ha
  Sugarbeets plant response rating: 0
[10]; Rate 62 g/ha, Postemergence
  Sugarbeets plant response rating: 0
[10]; [19]
  Plant response rating, Sugarbeets: 0
[11]; [17]
  Plant response rating, Velvetleaf: 0
[11]; [18]
  Plant response rating, Velvetleaf: 0
[11]; Preemergence, Rate 125 g/ha
  Velvetleaf plant response rating (0 to 10 scale): 0
[11]; Preemergence, Rate 250 g/ha
  Velvetleaf plant response rating: 0
[11]; Preemergence, Rate 500 g/ha
  Velvetleaf plant response rating: 0
[11]; Rate 62 g/ha, Postemergence
  Velvetleaf plant response rating: 0
[11]; [19]
  Plant response rating, Velvetleaf: 0
[12]; [17]
  Plant response rating, Wheat: 0
[12]; [18]
  Plant response rating, Wheat: 0
[12]; Preemergence, Rate 125 g/ha
  Wheat plant response rating (0 to 10 scale): 0
[12]; Preemergence, Rate 250 g/ha
  Wheat plant response rating: 0
[12]; Preemergence, Rate 500 g/ha
  Wheat plant response rating: 3
[12]; Rate 62 g/ha, Postemergence
  Wheat plant response rating: 0
[12]; [19]
  Plant response rating, Wheat: 0
[13]; [17]
  Plant response rating, Nutsedge: 0
[13]; [18]
  Plant response rating, Nutsedge: 0
[13]; Preemergence, Rate 125 g/ha
  Nutsedge plant response rating (0 to 10 scale): 0
[13]; Preemergence, Rate 250 g/ha
  Nutsedge plant response rating: 0
[13]; Preemergence, Rate 500 g/ha
  Nutsedge plant response rating: 0
[13]; Rate 62 g/ha, Postemergence
  Nutsedge plant response rating: 0
[13]; [19]
  Plant response rating, Nutsedge: 0
[14]; [20]
  Plant response rating, Rice: 0
[14]; [21]
  Rice plant response rating: 0
[14]; [22]
  Plant response rating, Rice: 0
[15]; [20]
  Plant response rating, S. Flatsedge: 4
[15]; [21]
  S. Flatsedge plant response rating: 0
[16]; [20]
  Plant response rating, Ducksalad: 0
[16]; [21]
  Ducksalad plant response rating: 0
[16]; [22]
  Plant response rating, Ducksalad: 4
